Results on 36 molecules are retold here after ChEMBL document CHEMBL1136024, “CCR3 antagonists: a potential new therapy for the treatment of asthma. Discovery and structure-activity relationships” (Bioorg Med Chem Lett, 2002).

For assay [1], the target named is T1, C-C chemokine receptor type 3 (Homo sapiens) (UniProt P51677).
T1 sequence (whole entry): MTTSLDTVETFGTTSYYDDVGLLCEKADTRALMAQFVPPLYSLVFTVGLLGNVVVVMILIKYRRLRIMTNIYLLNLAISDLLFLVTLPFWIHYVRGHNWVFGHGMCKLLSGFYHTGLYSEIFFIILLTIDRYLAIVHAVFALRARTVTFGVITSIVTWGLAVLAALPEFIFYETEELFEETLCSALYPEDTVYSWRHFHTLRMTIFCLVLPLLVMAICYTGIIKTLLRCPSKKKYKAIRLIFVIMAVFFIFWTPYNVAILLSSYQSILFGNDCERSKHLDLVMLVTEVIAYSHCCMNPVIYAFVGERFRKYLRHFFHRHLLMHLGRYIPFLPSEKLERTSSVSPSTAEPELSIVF
Put plainly: In vitro inhibitory activity against C-C chemokine receptor type 3 at 10 uM using 150p M [125I]-labeled human eotaxin.

Assay [2] deals with T2, C-C chemokine receptor type 3 (Homo sapiens, UniProt P51677).
T2 sequence (P51677 whole entry): T1 sequence (whole entry)
Kind of assay: In vitro inhibition if C-C chemokine receptor type 3 (CCR3) using 150p M [125I]-labeled human eotaxin.

In assay [3] the target is T2, C-C chemokine receptor type 3. Kind of assay: In vitro C-C chemokine receptor type 3 receptor activity of compound to inhibit eotaxin induced [Ca2+] mobilization in human Ca2+ mobilization assay. For orientation: Calcium assays in cells follow changes in intracellular calcium, usually with a dye or a luminescent sensor.
Assay [4] has as its target T1, C-C chemokine receptor type 3 (Homo sapiens). Put plainly: In vitro inhibitory activity of compound against C-C chemokine receptor type 3 at 5 uM using 150p M [125I]-labeled human eotaxin as radioligand.
The target is the same in assay [5]. As to conditions: 0.5 uM.
Description: In vitro inhibitory activity of compound against C-C chemokine receptor type 3 at 0.5 uM using 150p M [125I]-labeled human eotaxin as radioligand

For the molecule `Fc1ccc(CCCN2CC[C@@H]3[C@H](C2)c2cccc4c2N3CC4)cc1`, in assay [1], the inhibition (usually how much of the control response was suppressed) was determined as 100%. In addition, the IC50 (in general, the concentration that gives 50% inhibition) in assay [2] turned out to be 500 nM. `NCCN1CC[C@@H]2[C@H](C1)c1cccc3c1N2CC3` came in with an inhibition in assay [1] of 15%. In turn, `O=C(NCCCCN1CC[C@@H]2[C@H](C1)c1cccc3c1N2CC3)C12CC3CC(CC(C3)C1)C2` registered an inhibition in assay [1] of 73%. Also, the IC50 in assay [2] worked out at 6600 nM. `COc1cccc(NC(=O)N2CCCC(CN3CCC(Cc4ccc(F)cc4)CC3)C2)c1` (racemic): the IC50 was 50 nM in assay [2] and 820 nM in assay [3]. `O=C(NCCCCN1CC[C@@H]2[C@H](C1)c1cccc3c1N2CC3)C1CCCCC1` returned an inhibition in assay [1] of 45%. The same molecule yielded an IC50 in assay [2] of 11000 nM. In turn, `NCCCN1CC[C@@H]2[C@H](C1)c1cccc3c1N2CC3` gave an inhibition in assay [1] of 14%. The molecule `N#Cc1cccc(NC(=O)NCCCN2CCC(Cc3ccc(C(F)(F)F)cc3)CC2)c1` showed an inhibition in assay [4] of 52%. With `COc1cccc(NC(=O)N2CCNC(CN3CCC(Cc4ccc(F)cc4)CC3)C2)c1` (racemic), the IC50 in assay [2] stood at 30 nM; in assay [3], 140 nM. In the case of `CC(C)(C)C(=O)NCCCCN1CC[C@@H]2[C@H](C1)c1cccc3c1N2CC3`, in assay [1], the inhibition stood at 45%. The IC50 in assay [2] is 25600 nM. In turn, `Fc1ccc(CCN2CC[C@@H]3[C@H](C2)c2cccc4c2N3CC4)cc1` yielded an inhibition in assay [1] of 50%. As to `COc1cccc(NC(=O)N2CCN(C(=O)OC(C)(C)C)C(CN3CCC(Cc4ccc(F)cc4)CC3)C2)c1` (racemic), the figures for the IC50 in assay [2] and in assay [3] were 40 nM and 200 nM, respectively. For the molecule `CC[C@H](O)[C@H]1C[C@@H](Cc2ccccc2)CCN1CCCNC(=O)Nc1cccc(C(C)=O)c1`, the inhibition in assay [5] turned out to be 40%. With `CCC[C@H]1C[C@@H](Cc2ccccc2)CCN1CCCNC(=O)Nc1cccc(C(C)=O)c1` (stereo in doubt; 79), the midpoint of inhibition in assay [2], the IC50, lay at 100 nM.

In assay [2], `CC[C@@H](O)[C@H]1C[C@@H](Cc2ccccc2)CCN1CCCNC(=O)Nc1cccc(C(C)=O)c1` registered an IC50 of 50 nM.

In turn, `CSc1cccc(NC(=O)NCCCN2CCC(Cc3ccc(F)cc3)CC2)c1` showed an IC50 in assay [2] of 20 nM. The same measure, in the same setting: the result for `O=C(NCCCN1CCC(Cc2ccccc2)CC1)Nc1ccccc1` reads 400 nM; that for `CC(=O)c1cccc(NC(=O)NCCCN2CC[C@H](Cc3ccccc3)C[C@@H]2Cc2ccccc2)c1`, 200 nM; that for `O=C(NCCCN1CCC(Cc2ccc(F)cc2)CC1)Nc1cccc(-c2ccco2)c1`, 100 nM. Molecule `NCCCCN1CC[C@@H]2[C@H](C1)c1cccc3c1N2CC3` had an inhibition in assay [1] of 5%. The molecule `N#Cc1cccc(NC(=O)NCCCN2CCC(Cc3ccccc3)CC2)c1` had an IC50 in assay [2] of 200 nM.

Molecule `O=C(NCCCN1CCC(Cc2ccc(F)cc2)CC1)Nc1ccc(C(F)(F)F)cc1` had an IC50 in assay [2] of 60 nM. In assay [2], `CC(=O)c1cccc(NC(=O)NCCCN2CC[C@H](Cc3ccccc3)C[C@@H]2C(C)(C)O)c1` yielded an IC50 of 200 nM. `O=C(NCCCN1CC[C@@H]2[C@H](C1)c1cccc3c1N2CC3)Nc1ccc(I)cc1`: in assay [2], inhibition was half-maximal at 1500 nM (IC50). Take `O=C(NCCCN1CCC(Cc2ccc(F)cc2)CC1)NC12CC3CC(CC(C3)C1)C2`: the IC50 in assay [2] was 90 nM.

For `O=C(NCCCN1CCC(Cc2ccc(F)cc2)CC1)Nc1ccccc1C(F)(F)F`, in assay [2], it took 200 nM to reach half-maximal inhibition (IC50). With `Fc1ccc(CN2CC[C@@H]3[C@H](C2)c2cccc4c2N3CC4)cc1`, the inhibition in assay [1] was 15%.

On to `CCC[C@H]1C[C@@H](Cc2ccccc2)CCN1CCCNC(=O)Nc1cccc(C(C)=O)c1` (stereo in doubt), for which, in assay [2], the IC50 was determined as 200 nM.

In the case of `C[S+]([O-])c1cccc(NC(=O)NCCCN2CCC(Cc3ccc(F)cc3)CC2)c1` (centres undefined), the IC50 in assay [2] was 50 nM.

Consider `COc1cccc(NC(=O)N2CCOC(CN3CCC(Cc4ccc(F)cc4)CC3)C2)c1` (racemic), for which the figures for the IC50 in assay [2] and in assay [3] were 50 nM and 220 nM, respectively.

For `O=C(NCCCN1CCC(Cc2ccc(F)cc2)CC1)Nc1cccc(-c2ncc[nH]2)c1`, in assay [2], half-maximal inhibition (IC50) required 100 nM.

As to `N#Cc1cccc(NC(=O)NCCN2CCC(Cc3ccccc3)CC2)c1`, the IC50 in assay [2] worked out at 500 nM. For the molecule `CC[C@H](O)[C@H]1C[C@@H](Cc2ccccc2)CCN1CCCNC(=O)Nc1cccc(C(C)=O)c1` (stereo in doubt; 85), it took 6 nM to reach half-maximal inhibition in assay [2] (IC50). `CN(C)c1ccc(NC(=O)NCCCN2CC[C@@H]3[C@H](C2)c2cccc4c2N3CC4)cc1` showed an IC50 in assay [2] of 4800 nM.

As for `O=C(NCCCN1CCC(Cc2ccc(F)cc2)CC1)Nc1cccc(C(F)(F)F)c1`, the IC50 in assay [2] was 70 nM.

In assay [2], `CC(=O)c1ccc(NC(=O)NCCCN2CCC(Cc3ccc(F)cc3)CC2)cc1` came in with an IC50 of 200 nM. The molecule `CCCC[C@H](O)[C@H]1C[C@@H](Cc2ccc(F)cc2)CCN1CCCNC(=O)Nc1cccc(C(C)=O)c1` showed an IC50 in assay [2] of 5 nM.
